Where two headings read alike, the source gives them in different places.
Columns and labels:
[1] = test system: NCI-H292 lung cancer cells; assay: FDA drug screening, complete media vs cholesterol-free media without statin (TABLE 1); format: cell-based, human
[2] = test system: NCI-H292 lung cancer cells; assay: FDA drug screening, complete media vs cholesterol-free media with simvastatin (TABLE 2); format: cell-based, human
[3] = Complete minus Cholesterol-free, greater than 0 enhanced anti-cancer activity, about 0 neutral, below 0 antagonists
[4] = NCI-H292 cells in cholesterol-free media without statin
[5] = NCI-H292 cells in complete media
[6] = NCI-H292 cells, cholesterol-free media with simvastatin 0.04 μM, cell growth value in FDA drug screen
[7] = NCI-H292 cells, complete media, cell growth value in FDA drug screen
[8] = complete media minus cholesterol-free media + simvastatin, >0 enhanced anti-cancer activity, about 0 neutral, <0 antagonist
[9] = Complete minus Cholesterol-free, >0 enhanced anti-cancer activity, about 0 neutral, <0 antagonist
[10] = NCI-H292 cells, cholesterol-free media without statin, FDA drug library screen
[11] = NCI-H292 cells, complete media, FDA drug library screen
[12] = NCI-H292 cells, FDA drug library screen, complete media
[13] = complete media vs cholesterol-free media + simvastatin (0.04 μM), >0 enhanced anti-cancer activity, about 0 neutral, <0 antagonist
[14] = NCI-H292 cells, FDA library drug in cholesterol-free media with simvastatin 0.04 μM
[15] = NCI-H292 cells, FDA library drug in complete media
[16] = NCI-H292 cells, cholesterol-free media without statin
[17] = complete vs cholesterol-free media, greater than 0 enhanced anti-cancer activity, about 0 neutral, below 0 antagonists
[18] = NCI-H292 cells, cholesterol-free media with simvastatin 0.04 μM, FDA drug library screen (TABLE 2)
[19] = NCI-H292 cells, complete media, FDA drug library screen (TABLE 2)
[20] = complete media minus cholesterol-free media + simvastatin (0.04 μM), >0 enhanced anti-cancer activity, about 0 neutral, <0 antagonist

NC(=O)[C@@H]1CC[C@@H]2CN1C(=O)N2OS(=O)(=O)O [Avibactam (sodium)]
Difference [1, 3]: −0.74 | Cholesterol-free [1, 4]: 1.514 | Complete [1, 5]: 0.7743 | Cholesterol-free media + simvastatin (0.04 μM) [2, 6]: 1.031 | Complete Media [2, 7]: 1.132 | Difference [2, 8]: 0.10

CC(C)CN(C[C@@H](OP(=O)(O)O)[C@H](Cc1ccccc1)NC(=O)O[C@H]1CCOC1)S(=O)(=O)c1ccc(N)cc1 [Fosamprenavir]
Difference [1, 9]: −0.06 | Cholesterol-free [1, 10]: 0.7855 | Complete [1, 11]: 0.7241 | Cholesterol-free media + simvastatin (0.04 μM) ([2]; NCI-H292 cells, FDA drug library screen, cholesterol-free media with simvastatin 0.04 μM): 1.194 | Complete Media [2, 12]: 1.12 | Difference [2, 13]: −0.07

CCCCC[C@](C)(O)/C=C/[C@@H]1[C@@H](C/C=C\CCCC(=O)O)[C@@H](O)C[C@H]1O.NC(CO)(CO)CO [Carboprost (tromethamine)]
Difference ([1]; Complete minus Cholesterol-free, greater than 0 enhanced anti-cancer activity, about 0 neutral, below 0 antagonist): −0.14 | Cholesterol-free ([1]; NCI-H292 cells, FDA drug library screen, cholesterol-free media without statin): 1.222 | Complete [1, 12]: 1.08 | Cholesterol-free media + simvastatin (0.04 μM) [2, 14]: 1.591 | Complete Media [2, 15]: 1.306 | Difference [2, 13]: −0.29

CC(=C(CCO)SSCC1CCCO1)N(C=O)Cc1cnc(C)nc1N (stereo in doubt) [Fursultiamine]
Cholesterol-free [1]: 1.191 | Complete [1]: 1.162 | Difference [1]: −0.03 | Cholesterol-free media + simvastatin (0.04 μM) [2]: 1.842 | Complete Media [2]: 1.268 | Difference [2]: −0.57

O=C(O[C@H]1C[C@H]2CC[C@@H](C1)[N+]21CCCC1)C(O)(c1ccccc1)c1ccccc1.[Cl-] [Trospium (chloride)]
Cholesterol-free [1, 10]: 1.278 | Complete [1, 11]: 1.859 | Difference ([1]; complete vs cholesterol-free media, […]): 0.58 | Cholesterol-free media + simvastatin (0.04 μM) [2, 14]: 2.08 | Complete Media [2, 15]: 1.646 | Difference ([2]; complete media vs cholesterol-free media + simvastatin (0.04 μM), […]): −0.43

(S)-Timolol (Maleate)
Difference [1, 9]: −0.04 | Cholesterol-free [1, 10]: 1.235 | Complete [1, 11]: 1.191 | Cholesterol-free media + simvastatin (0.04 μM) [2, 6]: 1.237 | Complete Media [2, 7]: 1.285 | Difference [2, 8]: 0.05

NCCCC(O)(P(=O)(O)O)P(=O)(O)O [Alendronic acid]
Cholesterol-free [1, 16]: 1.207 | Complete ([1]; NCI-H292 cells, complete media): 0.7802 | Difference [1, 17]: −0.43 | Cholesterol-free media + simvastatin (0.04 μM) [2, 6]: 0.8926 | Complete Media [2, 7]: 0.9547 | Difference [2, 8]: 0.06

O=C(CCCN1CCN(c2ccccn2)CC1)c1ccc(F)cc1 [Azaperone]
Difference [1, 9]: −0.01 | Cholesterol-free [1, 10]: 0.9307 | Complete [1, 11]: 0.9163 | Cholesterol-free media + simvastatin (0.04 μM) [2, 18]: 1.007 | Complete Media [2, 19]: 0.9983 | Difference [2, 20]: −0.01

COC[C@H]1C[C@@H](c2nc(-c3ccc4c(c3)COc3cc5c(ccc6nc([C@@H]7CC[C@H](C)N7C(=O)[C@@H](NC(=O)OC)C(C)C)[nH]c65)cc3-4)c[nH]2)N(C(=O)[C@H](NC(=O)OC)c2ccccc2)C1 [Velpatasvir]
Difference [1, 9]: −0.30 | Cholesterol-free [1, 16]: 1.014 | Complete ([1]; NCI-H292 cells, complete media): 0.7173 | Cholesterol-free media + simvastatin (0.04 μM) [2, 6]: 0.7455 | Complete Media [2, 7]: 0.7768 | Difference [2, 8]: 0.03

CCN[C@H]1CN(CCCOC)S(=O)(=O)c2sc(S(N)(=O)=O)cc21 [Brinzolamide]
Difference [1, 9]: 0.00 | Cholesterol-free [1, 10]: 0.8738 | Complete [1, 11]: 0.876 | Cholesterol-free media + simvastatin (0.04 μM) [2, 6]: 1.105 | Complete Media [2, 7]: 1.197 | Difference [2, 8]: 0.09

N[C@H]1C(O)O[C@H](CO)[C@@H](O)[C@@H]1O (some centres unmarked) [Glucosamine]
Cholesterol-free [1, 16]: 1.17 | Complete ([1]; NCI-H292 cells, complete media): 0.7725 | Difference [1, 17]: −0.40 | Cholesterol-free media + simvastatin (0.04 μM) [2, 14]: 1.916 | Difference [2, 13]: −0.77

CC(C)(Oc1ccc(CCNC(=O)c2ccc(Cl)cc2)cc1)C(=O)O [Bezafibrate]
Difference [1, 3]: −0.60 | Cholesterol-free [1, 4]: 1.652 | Complete [1, 5]: 1.053 | Cholesterol-free media + simvastatin (0.04 μM) [2, 18]: 1.03 | Complete Media [2, 19]: 1.024 | Difference [2, 20]: −0.01

COc1cc(Nc2c(C#N)cnc3cc(OCCCN4CCN(C)CC4)c(OC)cc23)c(Cl)cc1Cl [Bosutinib]
Difference [1, 9]: 0.05 | Cholesterol-free [1, 10]: 0.4091 | Complete [1, 11]: 0.4542 | Cholesterol-free media + simvastatin (0.04 μM) [2, 6]: 0.2873 | Complete Media [2, 7]: 0.3524 | Difference [2, 8]: 0.07

— patent publication US20250144067A1, “PERSONALIZED STARVATION THERAPY FOR CANCER” (Faeth Therapeutics, Inc., priority 2021, published 2025)
